Key:
h15-LOX-2 [1] = molecular target: T1, h15-LOX-2 (Homo sapiens, UniProt O15296); assay: Lipoxygenase UV-Vis-based IC50 assay, h15-LOX-2; format: biochemical
T1 sequence (O15296 1-676): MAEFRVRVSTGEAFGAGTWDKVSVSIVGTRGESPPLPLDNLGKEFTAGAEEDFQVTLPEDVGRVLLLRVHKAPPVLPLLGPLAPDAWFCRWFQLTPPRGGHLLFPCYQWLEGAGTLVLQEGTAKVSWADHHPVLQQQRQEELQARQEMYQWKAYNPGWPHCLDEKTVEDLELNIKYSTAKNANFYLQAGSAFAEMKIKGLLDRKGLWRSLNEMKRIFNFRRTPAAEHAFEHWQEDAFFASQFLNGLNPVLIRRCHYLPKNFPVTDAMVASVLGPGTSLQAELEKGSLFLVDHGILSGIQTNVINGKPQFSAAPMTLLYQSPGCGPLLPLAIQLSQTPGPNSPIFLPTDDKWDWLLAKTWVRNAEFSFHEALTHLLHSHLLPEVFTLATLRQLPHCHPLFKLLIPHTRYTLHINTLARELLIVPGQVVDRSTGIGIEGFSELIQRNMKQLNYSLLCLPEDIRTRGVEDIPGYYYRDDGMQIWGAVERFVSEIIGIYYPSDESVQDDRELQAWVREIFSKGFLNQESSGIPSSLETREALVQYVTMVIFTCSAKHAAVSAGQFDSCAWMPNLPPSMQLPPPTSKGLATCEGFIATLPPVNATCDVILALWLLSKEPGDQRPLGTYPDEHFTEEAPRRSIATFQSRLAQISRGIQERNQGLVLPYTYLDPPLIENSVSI

h15-LOX-2 [2] = molecular target: T1, h15-LOX-2; assay: Study of inhibitors as substrates of h15-LOX-2; format: biochemical; conditions: 20 μM inhibitor, absence of AA; UV-Vis and RP-HPLC
h15-LOX-2 [3] = molecular target: T1, h15-LOX-2; assay: Hydrogen/deuterium exchange mass spectrometry of h15-LOX-2; conditions: 20 μM inhibitor; peptides 173-184 and 184-191 (helix α2); short time scales (< 10 min)
h15-LOX-2 [4] = molecular target: T1, h15-LOX-2; assay: Steady-state inhibition kinetics of h15-LOX-2; format: biochemical; conditions: for mode of inhibition: against h15-LOX-2
SEC = molecular target: the molecule itself; assay: SEC

FC(F)(F)c1ccc(CSc2nccn2-c2ccccc2)cc1 [Inhibitor 327069]
enhanced inhibition of 327069 over 536924 (h15-LOX-2 [1]; ratio of IC50 values): ~10 fold | substrate activity with h15-LOX-2 (h15-LOX-2 [2]): not substrates | change in H/D exchange vs h15-LOX-2 alone (h15-LOX-2 [3]): ≤ 20% | Ki (h15-LOX-2 [4]): 1200 nM | mode of inhibition (h15-LOX-2 [4]): mixed-type

Fc1ccc(CSc2nccn2-c2ccccc2)cc1 [analog 2, 2-((4-fluorobenzyl)thio)-1-phenyl-1H-imidazole]
IC50 (h15-LOX-2 [1]): > 100000 nM

CCc1ccc(CSc2nccn2-c2ccccc2)cc1 [Inhibitor 327206]
substrate activity with h15-LOX-2 (h15-LOX-2 [2]): not substrates | mode of inhibition (h15-LOX-2 [4]): mixed-type

B1: loop mutant (LM) of human epithelial 15-lipoxygenase-2, Mn2+-substituted (enzyme, UniProt O15296 1-676, looked up)
chain: MAEFRVRVSTGEAFGAGTWDKVSVSIVGTRGESPPLPLDNLGKEFTAGAEEDFQVTLPEDVGRVLLLRVHKAGPLAPDAWFCRWFQLTPPRGGHLLFPCYQWLEGAGTLVLQEGTAKVSWADHHPVLQQQRQEELQARQEMYQWKAYNPGWPHCLDEKTVEDLELNIKYSTAKNANFYLQAGSAFAEMKIKGLLDRKGLWRSLNEMKRIFNFRRTPAAEHAFEHWQEDAFFASQFLNGLNPVLIRRCHYLPKNFPVTDAMVASVLGPGTSLQAELEKGSLFLVDHGILSGIQTNVINGKPQFSAAPMTLLYQSPGCGPLLPLAIQLSQTPGPNSPIFLPTDDKWDWLLAKTWVRNAEFSFHEALTHLLHSHLLPEVFTLATLRQLPHCHPLFKLLIPHTRYTLHINTLARELLIVPGQVVDRSTGIGIEGFSELIQRNMKQLNYSLLCLPEDIRTRGVEDIPGYYYRDDGMQIWGAVERFVSEIIGIYYPSDESVQDDRELQAWVREIFSKGFLNQESSGIPSSLETREALVQYVTMVIFTCSAKHAAVSAGQFDSCAWMPNLPPSMQLPPPTSKGLATCEGFIATLPPVNATCDVILALWLLSKEPGDQRPLGTYPDEHFTEEAPRRSIATFQSRLAQISRGIQERNQGLVLPYTYLDPPLIENSVSI
stoichiometry N (SEC): 2
